Results as given in patent publication US10131639B2, “Formulations of 2-(tert-butylamino)-4-((1R,3R,4R)-3-hydroxy-4methylcyclohexylamino)-pyrimidine-5-carboxamide” (Signal Pharmaceuticals, LLC, priority 2014, dated 2018).

Experiments:
[1] = Hygroscopicity by dynamic vapor sorption (DVS); format: physicochemical; conditions: for Hygroscopicity (80% RH, 25° C., cycle 1 sorption): DVS water uptake, L-tartrate: hydrate, difference between 20% RH and 80% RH
Source text: DVS: A portion of the sample was loaded into a quartz sample holder and tested using DVS-Advantage system in two continuous adsorption/desorption cycles. The settings are described as follows:
Adsorption/desorption cycle 1: 50 to 95 to 0% RH;
Adsorption/desorption cycle 2: 0 to 95 to 0% RH;

[2] = Solid state physical stability under stress conditions (XRPD); format: physicochemical; conditions: XRPD vs initial material
Experimental: A portion of the sample was loaded to a 4 mL clear glass vial. Four samples were prepared for each salt. The vials (open) were stored under 4 different stress conditions, respectively.

[3] = Solid state chemical stability under stress conditions (HPLC with UV detection); conditions: for Chemical stability (open vial, 2 weeks) / Chemical stability (open vial, 2 weeks): degradation: HPLC/UV; for % Remaining at 80° C. / % Remaining at 80° C./75% RH: solid state, open vial, 2 weeks, HPLC with UV detection
Experimental: Six vials were prepared for each salt. Two samples were stored in the refrigerator. The other four samples in open vials were stored under 4 stress conditions, respectively. […] One set of samples stored in the refrigerator were used to prepare the stock and standard solutions.

[4] = Solubility in water and SGF (24 hours, ambient temperature, HPLC/UV); format: physicochemical; conditions: for pH of the solubility sample in SGF / pH of the solubility sample in water: measured after 24 hours shaking; for Solubility in SGF (equiv. to free base): simulated gastric fluid without pepsin; for Solubility in SGF (equiv. to free base) / Solubility in water (equiv. to free base): ambient temperature, 24 hours
Experimental: Solubility in Water and SGF: A portion of the sample was weighed into a 2 mL clear HPLC vial. […] The sample was removed from the shaker and pH measurement was performed using a calibrated pH meter. Then a portion of the sample was filtered using […] Nylon-membraned centrifuge tube filter at 14000 RPM for 5 min. The filtrate was analyzed using HPLC/UV with appropriate dilution. The filtered solid residues were analyzed using XRPD.
For solubility in SGF, the samples were prepared and assayed in the same procedures as mentioned above.

[5] = Hygroscopicity by dynamic vapor sorption (DVS); format: physicochemical; conditions: 25° C., after pre-heating at 50° C. for 3 hours
[6] = 80° C./75% RH, listed as H2SO4 salt

| Structure (SMILES) | hygroscopicity (sorption/desorption, in words) ([1]; DVS, 25° C.) | pH of the solubility sample in SGF [4] | pH of the solubility sample in water [4] | Solubility in SGF (equiv. to free base) [4] [mg/mL] | Solubility in water (equiv. to free base) [4] [mg/mL] | Hygroscopicity (80% RH, 25° C., cycle 1 sorption) [1] [%] | Physical stability (open vial, 2 weeks) ([2]; 80° C./75% RH) | Physical stability (open vial, 2 weeks) ([2]; 80° C.) | Chemical stability (open vial, 2 weeks) ([3]; 80° C./75% RH) | Chemical stability (open vial, 2 weeks) ([3]; 80° C.) | % Remaining at 80° C. ([3]; 80° C.) [%] | % Remaining at 80° C./75% RH ([3]; 80° C./75% RH) [%] | further results |
| --- | --- | --- | --- | --- | --- | --- | --- | --- | --- | --- | --- | --- | --- |
| CC1CCC(Nc2nc(NC(C)(C)C)ncc2C(N)=O)CC1O.Cl (stereo not shown) [HCl] | hygroscopic | (pH 1.19) | (pH 3.87) | 6.058 | 10.761 | 5.21 | form change | no change | no change | no change | 101.2 | 100.4 | water uptake at 40% RH, Cycle 2 sorption isotherm ([1]; DVS, 25° C.): 4.89%; Physical stability (open vial, 2 weeks) ([2]; 80° C./75% RH, listed as HCl salt): not stable; Physical stability (open vial, 2 weeks) ([2]; 80° C., listed as HCl salt): physically stable |
| CC(O)C(=O)O.CC1CCC(Nc2nc(NC(C)(C)C)ncc2C(N)=O)CC1O [L-lactate] | moderately hygroscopic |  |  |  |  | 2.65 | form change | form change | no change | no change | 100.4 | 100.5 | Physical stability (open vial, 2 weeks) ([2]; 80° C./75% RH, listed as L-lactate salt form 2): not physically stable; Physical stability (open vial, 2 weeks) ([2]; 80° C., listed as L-lactate salt form 2): not physically stable |
| O=C(O)[C@H](O)[C@@H](O)C(=O)O [L-tartrate] |  |  |  |  |  | 0.81 | no change | no change | no change | no change | 98.7 | 98.3 | hygroscopicity (sorption/desorption, in words) ([1]; DVS, 25° C., listed as L-tartrate salt): slightly hygroscopic; hygroscopicity (sorption/desorption, in words) ([1]; DVS, 25° C., listed as L-tartrate salt (hydrate)): not hygroscopic; Cycle 1 sorption at 20% RH [5]: 4.32%; Physical stability (open vial, 2 weeks) ([2]; 80° C./75% RH, listed as L-tartrate salt): physically stable; Physical stability (open vial, 2 weeks) ([2]; 80° C., listed as L-tartrate salt): physically stable |

More lines, main results first:

| hygroscopicity (sorption/desorption, in words) ([1]; DVS, 25° C.) | pH of the solubility sample in SGF [4] | pH of the solubility sample in water [4] | Solubility in SGF (equiv. to free base) [4] [mg/mL] | Solubility in water (equiv. to free base) [4] [mg/mL] | Structure (SMILES) | Hygroscopicity (80% RH, 25° C., cycle 1 sorption) [1] [%] | Physical stability (open vial, 2 weeks) ([2]; 80° C./75% RH) | Physical stability (open vial, 2 weeks) ([2]; 80° C.) | Chemical stability (open vial, 2 weeks) ([3]; 80° C./75% RH) | Chemical stability (open vial, 2 weeks) ([3]; 80° C.) | % Remaining at 80° C. ([3]; 80° C.) [%] | % Remaining at 80° C./75% RH ([3]; 80° C./75% RH) [%] | further results |
| --- | --- | --- | --- | --- | --- | --- | --- | --- | --- | --- | --- | --- | --- |
| hygroscopic | (pH 1.03) | (pH 1.69) | 3.187 | 2.647 | C[C@@H]1CC[C@@H](Nc2nc(NC(C)(C)C)ncc2C(N)=O)C[C@H]1O.O=S(=O)(O)O [Compound H2SO4] | 6.13 | form change | no change | no change | no change | 100.0 | 100.1 | Physical stability (open vial, 2 weeks) [2, 6]: not stable; Physical stability (open vial, 2 weeks) ([2]; 80° C., listed as H2SO4 salt): physically stable; Chemical stability (open vial, 2 weeks) [3, 6]: stable; Chemical stability (open vial, 2 weeks) ([3]; 80° C., listed as H2SO4 salt): stable |
| not hygroscopic |  |  |  |  | C[C@@H]1CC[C@@H](Nc2nc(NC(C)(C)C)ncc2C(N)=O)C[C@H]1O.O=P(O)(O)O [Compound H3PO4] | 0.48 | no change | no change | no change | no change | 101.1 | 99.9 | Physical stability (open vial, 2 weeks) ([2]; 80° C./75% RH, listed as H3PO4 salt): physically stable; Physical stability (open vial, 2 weeks) ([2]; 80° C., listed as H3PO4 salt): physically stable |
| hygroscopic | (pH 1.54) | (pH 4.07) | 8.922 | 4.496 | C[C@@H]1CC[C@@H](Nc2nc(NC(C)(C)C)ncc2C(N)=O)C[C@H]1O.O=C(O)C[C@H](O)C(=O)O [L-malate] | 5.60 | form change | form change | not chemically stable | not chemically stable | 87.7 | 92.9 | Physical stability (open vial, 2 weeks) ([2]; 80° C./75% RH, listed as L-malate salt): not physically stable; Physical stability (open vial, 2 weeks) ([2]; 80° C., listed as L-malate salt): not physically stable; Chemical stability (open vial, 2 weeks): degradation ([3]; 80° C./75% RH): ~7% degradation; Chemical stability (open vial, 2 weeks): degradation ([3]; 80° C.): ~12% degradation |
